Test results: paper PMC12593347, “Profiling Class-Wide Bioactivities of Flavonoids While Minimizing Compound-Specific Effects Using an Equimolar Mixture Strategy” (Journal of Agricultural and Food Chemistry, 2025)

Target: T1, amyloid-β1–42 (Aβ1–42) (Homo sapiens, UniProt P05067)
T1 construct: gene APP; Aβ1–42 monomers, biotinylated, immobilized on streptavidin biosensor
Assay: biolayer interferometry (Octet R8), steady-state […] fit
Type: binding

T1 sequence (P05067 672-713): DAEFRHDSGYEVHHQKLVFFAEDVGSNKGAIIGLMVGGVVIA

For `O=C(O[C@@H]1Cc2c(O)cc(O)cc2O[C@@H]1c1cc(O)c(O)c(O)c1)c1cc(O)c(O)c(O)c1` [EGCG], the Kd was 93 µM.
